Test results taken from ChEMBL document CHEMBL3797052 (Eur J Med Chem, 2016).

Test system: not listed separately
Assay: Antiproliferative activity against human SF268 cells assessed as cell growth at 10^-6 M after 48 hrs by sulforhodamine B assay
Assay type: functional
Conditions: SF-268, 48 h, read-out: Activity

| Structure (SMILES) | growth at 1 µM [%] |
| --- | --- |
| CNC(=O)c1cc(Oc2ccc3nc(NC(=O)c4cc(C(F)(F)F)cc(C(F)(F)F)c4)sc3c2)ccn1 | 79 |

Test system: MDA-MB-231
Assay: Antiproliferative activity against human MDA-MB-231 cells assessed as cell growth at 10^-8 M after 48 hrs by sulforhodamine B assay
Assay type: functional
Conditions: MDA-MB-231, 48 h, read-out: Activity

| Structure (SMILES) | growth at 0.01 µM [%] |
| --- | --- |
| CNC(=O)c1cc(Oc2ccc3nc(NC(=O)c4cc(C(F)(F)F)cc(C(F)(F)F)c4)sc3c2)ccn1 | 108 |

Test system: SK-MEL-2
Assay: Antiproliferative activity against human SK-MEL-2 cells assessed as cell growth at 10^-8 M after 48 hrs by sulforhodamine B assay
Assay type: functional
Conditions: SK-MEL-2, 48 h, read-out: Activity

| Structure (SMILES) | growth at 0.01 µM [%] |
| --- | --- |
| CNC(=O)c1cc(Oc2ccc3nc(NC(=O)c4cc(C(F)(F)F)cc(C(F)(F)F)c4)sc3c2)ccn1 | 88 |

Test system: not listed separately
Assay: Antiproliferative activity against human NCI-ADR-RES cells assessed as cell growth at 10^-7 M after 48 hrs by sulforhodamine B assay
Assay type: functional
Conditions: read-out: Activity

| Structure (SMILES) | growth at 0.1 µM [%] |
| --- | --- |
| CNC(=O)c1cc(Oc2ccc3nc(NC(=O)c4cc(C(F)(F)F)cc(C(F)(F)F)c4)sc3c2)ccn1 | 103 |

Test system: not listed separately
Assay: Antiproliferative activity against human HCT15 cells assessed as growth inhibition after 48 hrs by sulforhodamine B assay
Assay type: functional
Conditions: HCT-15, 48 h

| Structure (SMILES) | GI50 [µM] | LC50 [µM] | TGI [µM] |
| --- | --- | --- | --- |
| CNC(=O)c1cc(Oc2ccc3nc(NC(=O)c4cc(C(F)(F)F)cc(C(F)(F)F)c4)sc3c2)ccn1 | 3.97 | > 100 | 25.1 |

Test system: not listed separately
Assay: Antiproliferative activity against human UACC62 cells assessed as cell growth at 10^-4 M after 48 hrs by sulforhodamine B assay
Assay type: functional
Conditions: UACC-62, 48 h, read-out: Activity

| Structure (SMILES) | growth at 100 µM [%] |
| --- | --- |
| CNC(=O)c1cc(Oc2ccc3nc(NC(=O)c4cc(C(F)(F)F)cc(C(F)(F)F)c4)sc3c2)ccn1 | -56 |

Test system: not listed separately
Assay: Antiproliferative activity against human OVCAR5 cells assessed as cell growth at 10^-8 M after 48 hrs by sulforhodamine B assay
Assay type: functional
Conditions: OVCAR-5, 48 h, read-out: Activity

| Structure (SMILES) | growth at 0.01 µM [%] |
| --- | --- |
| CNC(=O)c1cc(Oc2ccc3nc(NC(=O)c4cc(C(F)(F)F)cc(C(F)(F)F)c4)sc3c2)ccn1 | 96 |

Test system: not listed separately
Assay: Antiproliferative activity against human HL-60(TB) cells assessed as cell growth at 10^-7 M after 48 hrs by sulforhodamine B assay
Assay type: functional
Conditions: HL-60, 48 h, read-out: Activity

| Structure (SMILES) | growth at 0.1 µM [%] |
| --- | --- |
| CNC(=O)c1cc(Oc2ccc3nc(NC(=O)c4cc(C(F)(F)F)cc(C(F)(F)F)c4)sc3c2)ccn1 | 97 |

Test system: HT-29
Assay: Antiproliferative activity against human HT-29 cells assessed as cell growth at 10^-7 M after 48 hrs by sulforhodamine B assay
Assay type: functional
Conditions: HT-29, 48 h, read-out: Activity

| Structure (SMILES) | growth at 0.1 µM [%] |
| --- | --- |
| CNC(=O)c1cc(Oc2ccc3nc(NC(=O)c4cc(C(F)(F)F)cc(C(F)(F)F)c4)sc3c2)ccn1 | 107 |

Test system: MDA-MB-231
Assay: Antiproliferative activity against human MDA-MB-231 cells assessed as cell growth at 10^-6 M after 48 hrs by sulforhodamine B assay
Assay type: functional
Conditions: MDA-MB-231, 48 h, read-out: Activity

| Structure (SMILES) | growth at 1 µM [%] |
| --- | --- |
| CNC(=O)c1cc(Oc2ccc3nc(NC(=O)c4cc(C(F)(F)F)cc(C(F)(F)F)c4)sc3c2)ccn1 | 114 |

Test system: Malme-3M
Assay: Antiproliferative activity against human MALME-3M cells assessed as cell growth at 10^-7 M after 48 hrs by sulforhodamine B assay
Assay type: functional
Conditions: read-out: Activity

| Structure (SMILES) | growth at 0.1 µM [%] |
| --- | --- |
| CNC(=O)c1cc(Oc2ccc3nc(NC(=O)c4cc(C(F)(F)F)cc(C(F)(F)F)c4)sc3c2)ccn1 | 90 |

Test system: not listed separately
Assay: Antiproliferative activity against human HOP62 cells assessed as cell growth at 10^-8 M after 48 hrs by sulforhodamine B assay
Assay type: functional
Conditions: HOP-62, 48 h, read-out: Activity

| Structure (SMILES) | growth at 0.01 µM [%] |
| --- | --- |
| CNC(=O)c1cc(Oc2ccc3nc(NC(=O)c4cc(C(F)(F)F)cc(C(F)(F)F)c4)sc3c2)ccn1 | 99 |

Test system: NCI-H322M
Assay: Antiproliferative activity against human NCI-H322M cells assessed as growth inhibition after 48 hrs by sulforhodamine B assay
Assay type: functional
Conditions: not given

| Structure (SMILES) | GI50 [µM] | LC50 (50% lethal concentration) [µM] | TGI [µM] |
| --- | --- | --- | --- |
| CNC(=O)c1cc(Oc2ccc3nc(NC(=O)c4cc(C(F)(F)F)cc(C(F)(F)F)c4)sc3c2)ccn1 | 3.7 | > 100 | 19.8 |

Molecular target: Voltage-gated inwardly rectifying potassium channel KCNH2 (Homo sapiens, UniProt Q12809)
Assay: Inhibition of human ERG assessed as reduction in channel current by automated patch-clamp electrophysiology assay
Conditions: not given

Voltage-gated inwardly rectifying potassium channel KCNH2, sequence (Q12809 whole entry): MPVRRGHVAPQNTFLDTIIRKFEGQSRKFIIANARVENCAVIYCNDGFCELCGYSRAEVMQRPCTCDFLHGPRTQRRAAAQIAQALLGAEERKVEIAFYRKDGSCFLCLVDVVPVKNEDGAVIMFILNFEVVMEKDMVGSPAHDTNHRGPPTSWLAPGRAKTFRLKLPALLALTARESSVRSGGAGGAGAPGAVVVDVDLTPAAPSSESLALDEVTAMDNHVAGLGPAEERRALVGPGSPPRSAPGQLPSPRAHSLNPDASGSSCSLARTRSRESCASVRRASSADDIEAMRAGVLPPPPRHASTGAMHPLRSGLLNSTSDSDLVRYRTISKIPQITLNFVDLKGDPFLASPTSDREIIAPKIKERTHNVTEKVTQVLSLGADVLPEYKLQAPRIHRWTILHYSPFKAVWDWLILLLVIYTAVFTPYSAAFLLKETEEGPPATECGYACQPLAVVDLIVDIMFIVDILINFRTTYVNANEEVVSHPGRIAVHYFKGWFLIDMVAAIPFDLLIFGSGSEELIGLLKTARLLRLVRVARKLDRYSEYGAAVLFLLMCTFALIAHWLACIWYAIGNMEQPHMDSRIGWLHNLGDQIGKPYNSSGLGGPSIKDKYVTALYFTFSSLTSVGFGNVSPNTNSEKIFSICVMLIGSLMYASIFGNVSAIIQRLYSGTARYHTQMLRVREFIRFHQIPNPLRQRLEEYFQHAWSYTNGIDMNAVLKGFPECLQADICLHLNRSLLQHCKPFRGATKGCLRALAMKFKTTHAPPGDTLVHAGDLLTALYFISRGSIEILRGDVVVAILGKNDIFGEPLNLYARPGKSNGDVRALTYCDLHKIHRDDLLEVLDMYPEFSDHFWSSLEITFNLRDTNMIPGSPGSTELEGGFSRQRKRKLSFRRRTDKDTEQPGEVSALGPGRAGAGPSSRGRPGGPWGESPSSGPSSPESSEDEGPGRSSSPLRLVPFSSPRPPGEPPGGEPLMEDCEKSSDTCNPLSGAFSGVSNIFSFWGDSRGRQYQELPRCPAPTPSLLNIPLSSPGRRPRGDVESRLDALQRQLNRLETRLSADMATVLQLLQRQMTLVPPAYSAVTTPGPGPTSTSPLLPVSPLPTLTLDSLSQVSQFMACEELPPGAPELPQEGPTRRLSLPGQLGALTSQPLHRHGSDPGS

| Structure (SMILES) | IC50 [µM] |
| --- | --- |
| CNC(=O)c1cc(Oc2ccc3nc(NC(=O)c4cc(C(F)(F)F)cc(C(F)(F)F)c4)sc3c2)ccn1 | 48.4 |

Test system: not listed separately
Assay: Antiproliferative activity against human RPMI8226 cells assessed as cell growth at 10^-4 M after 48 hrs by sulforhodamine B assay
Assay type: functional
Conditions: RPMI-8226, 48 h, read-out: Activity

| Structure (SMILES) | growth at 100 µM [%] |
| --- | --- |
| CNC(=O)c1cc(Oc2ccc3nc(NC(=O)c4cc(C(F)(F)F)cc(C(F)(F)F)c4)sc3c2)ccn1 | 15 |

Test system: A549
Assay: Antiproliferative activity against human A549/ATCC cells assessed as cell growth at 10^-6 M after 48 hrs by sulforhodamine B assay
Assay type: functional
Conditions: A549, 48 h, read-out: Activity

| Structure (SMILES) | growth at 1 µM [%] |
| --- | --- |
| CNC(=O)c1cc(Oc2ccc3nc(NC(=O)c4cc(C(F)(F)F)cc(C(F)(F)F)c4)sc3c2)ccn1 | 105 |

Test system: not listed separately
Assay: Antiproliferative activity against human RXF393 cells assessed as cell growth at 10^-7 M after 48 hrs by sulforhodamine B assay
Assay type: functional
Conditions: RXF 393, 48 h, read-out: Activity

| Structure (SMILES) | growth at 0.1 µM [%] |
| --- | --- |
| CNC(=O)c1cc(Oc2ccc3nc(NC(=O)c4cc(C(F)(F)F)cc(C(F)(F)F)c4)sc3c2)ccn1 | 94 |

Test system: MCF7
Assay: Antiproliferative activity against human MCF7 cells assessed as cell growth at 10^-8 M after 48 hrs by sulforhodamine B assay
Assay type: functional
Conditions: MCF7, 48 h, read-out: Activity

| Structure (SMILES) | growth at 0.01 µM [%] |
| --- | --- |
| CNC(=O)c1cc(Oc2ccc3nc(NC(=O)c4cc(C(F)(F)F)cc(C(F)(F)F)c4)sc3c2)ccn1 | 93 |
